This note sets out measurements from US11872238B2, “Nutritional composition for use to enhance attention and/or reduce impulsivity” (SOCIETE DES PRODUITS NESTLE S.A., priority 2017, dated 2024).

Series [1] concerns mouse pups. The experiment in a line: Cross-fostering study of WT and St6Gal1 KO (6SL KO) mouse pups reared to WT or KO dams, with cognitive tests (T-maze, pre-pulse inhibition, Barnes maze, attentional set-shifting) in adulthood. It is filed as in vivo. The note with it: mouse pups receiving milk absent of 6′-SL, compared with pups receiving milk comprising 6′-SL; evaluated as adults. An excerpt:
(§1) This effects were observed on a background of no changes in term of neurodevelopment evaluated by the onset and strength of reflexes using the Fox scale.
Adult wild-type (WT) B6.129 and heterozygous (HZ) B6.129-St6gal1^tm2Jxm breeding pairs (four males and four females and three males and four females, respectively) were purchased from a commercial breeder (The Jackson Laboratory). Upon arrival, same-sex mice were housed in same-sex groups of 2-3 in type-1 polycarbonate cages (33.0×13.0×14.0 cm) equipped with sawdust bedding, an enrichment bag (Mucedola, Settimo Milanese, Italy), metal top and ad libitum water and food pellets (Mucedola, Settimo Milanese, Italy). Mice were maintained on a reversed 12-h-light-dark cycle (light on at 7:00 PM) in an air-conditioned room (temperature 21±1° C. and relative humidity 60±10%). Two weeks after arrival, breeding triads (one male, two females) were formed. After two weeks of mating, male mice were removed and females were housed individually in standard type-1 cages. Females were checked daily for delivery and the day in which they gave birth was designated as postnatal day (PND) 0. Apart from cage cleaning once a week, dams and their offspring were kept undisturbed until weaning (on PND 25). […]
The aforementioned subjects have then been evaluated for neurodevelopmental milestones, cognitive capabilities (inc. attention) as outlined in figure two. […]

For series [2], the system named is mouse pups. The series is described as follows: Neurodevelopmental milestones: onset and strength of reflexes on the Fox scale. In kind it is in vivo. The note with it: mouse pups receiving milk absent of 6′-SL, compared with pups receiving milk comprising 6′-SL. How it is done:
as §1
On PND3, PND7, and PND12 mice were evaluated for the onset of neurodevelopmental milestones through the administration of Fox scales. The latter consist of a series of rapid tests to evaluate the maturity of a series of reflexes: righting (capability of mice to turn over with all four paws on the ground when placed on its back); grasping (the mouse is placed on a wire-mesh grid which is progressively tilted until the subject harmlessly falls on a soft surface, positioned 2 cm below the grid); cliff aversion (which measures the capability of mice to withdraw from a perceived visual cliff). Furthermore, pups' bodyweight and body length were constantly monitored throughout development.

Turning to `CC(=O)N[C@H]1[C@H]([C@H](O)[C@H](O)CO)O[C@@](OC[C@H]2O[C@@H](O[C@H]3[C@H](O)[C@@H](O)C(O)O[C@@H]3CO)[C@H](O)[C@@H](O)[C@H]2O)(C(=O)O)C[C@@H]1O` (stereo partly drawn) [6′-sialyllactose, (6R)-5-Acetamido-3,5-dideoxy-6-[(1R,2R)-1,2,3-trihydroxypropyl]-β-L-threo-hex-2-ulopyranonosyl-(2->6)-β-D-galactopyranosyl-(1->4)-D-glucopyranose], in the series on mouse pups [1], the attention result is “decreased attention” and the impulsivity entry was “increased impulsivity”. In addition, in the series with mouse pups [2], the “neurodevelopment evaluated by the onset and strength of reflexes using the Fox scale” value is given as “no changes”.
